Data on 18 substances can be found in patent US8030446B2, “Mutant proline-and-arginine rich peptides and methods for using the same” (Trustees of Dartmouth College, priority 2006, dated 2011).

Assay [1] concerns the target T1, Mammalian (Human) 20s Proteasome (Homo sapiens, UniProt P25788).
T1 construct: purchased Boston Biochem (Cambridge, Mass.)
Briefly: Chymotrypsin-like (ChT-L) peptidase activity of 20S proteasome, N-succinyl-LLVY-AMC substrate. It counts as biochemical. Particulars: for IC50: 15-minute pre-incubation, 1 hour at 37° C., pH 7.5, 0.03% SDS. Here is the method: Determination of Enzymatic Activity. Mammalian (Human) 20s Proteasome was purchased from Boston Biochem (Cambridge, Mass.); substrate, N-succinyl-LLVY-AMC was purchased from SIGMA (St. Louis, Mo.); and negative control, Lactacystin, was purchased from SIGMA. […] Activity was determined by measuring the amount of a fluorescence observed upon release of the MCA group after a 1 hour incubation at 37° C. in 50 mM sodium phosphate buffer at pH 7.5 containing 0.03% SDS. Inhibition by PR-peptide was measured after a 15-minute pre-incubation at 37° C. of each peptide with 20S proteasome, followed by the addition of the substrate and the one hour incubation.

Assay [2] concerns genes regulating the NF-κB pathway in human umbilical vein endothelial cells (HUVEC). Briefly: NF-κB pathway-specific gene expression microarray in HUVEC treated with PR peptides. Particulars: for overall inhibitory effect on NF-κB pathway-related gene expression (in words): FIG. 1, averaged % inhibition over 13 down-regulated genes, relative to PR11; for AKT1 gene expression / ATF2 gene expression / CREB1 gene expression / ELK3 gene expression / JNK1 gene expression / MEK4 gene expression / MEKK1 gene expression / MEKK2 gene expression / NF-κB1 gene expression / NF-κB2 gene expression / P38 MAPK gene expression / RANK gene expression / RIP gene expression / TAK1 gene expression / TBK1 gene expression / TRAF6 gene expression / number of significantly reduced genes: HUVEC; for AKT1 gene expression / ATF2 gene expression / CREB1 gene expression / ELK3 gene expression / JNK1 gene expression / MEK4 gene expression / MEKK1 gene expression / MEKK2 gene expression / NF-κB1 gene expression / NF-κB2 gene expression / P38 MAPK gene expression / RANK gene expression / RIP gene expression / TAK1 gene expression / TBK1 gene expression / TRAF6 gene expression: PR peptides 1 μM, 8 hours, relative to untreated controls; for number of significantly reduced genes: of the 13 down-regulated genes of Tables 5 and 6. It counts as cell-based. Here is the method:
Cell Culture. Human umbilical vein endothelial cells (HUVEC, Cambrex Bio Science Walkersville, Inc., East Rutherford, N.J.) were cultured in endothelial cell basal medium-2 supplemented with EGM-2 SINGLEQUOTS (Cambrex Bio Science Walkersville, Inc.) and FBS. Confluent HUVEC, passage 3-5, were starved overnight in medium supplemented with 0.5% FBS, 0.25% BSA and incubated with PR peptides (1 μM) for 8 hours in starvation medium.
Total RNA Extraction and Gene Profiling by Microarray. Total RNA extraction was performed using the RNEASY mini kit protocol (QIAGEN, Valencia, Calif.). The quality and quantity of total RNA was determined using RNA 6000 Nano chips (Agilent Technology, Santa Clara, Calif.).
Gene profiling was performed using pathway-specific gene expression array for NF-κB signaling transduction (HS-016.2, SuperArray Bioscience Corp.). A total of 96 cDNA fragments from genes related to NF-κB mediated signal transduction, including: NF-κB/IκB family, NF-κB responsive genes (adhesion molecules, cytokines), extracellular ligands, transmembrane receptors, adaptor proteins, signal transduction kinases, and transcription factors were printed in tetraspot format on 3.8×4.8 cm nylon array membrane. Total RNA (0.5 μg) was reverse-transcribed into cDNA labeled with biotin-dUTP according to the manufacture's protocol. After overnight hybridization at 60° C., array membranes were treated with alkaline phosphate-conjugated streptavidin followed by chemiluminescent alkaline phosphate substrate CDP-star (Applied Biosystems, Foster City, Calif.) and exposed to X-ray film. The data were extracted from raw images using […] software (SuperArray, Bioscience Corp.). After background subtraction, the level of gene expression was determined as signal intensity units relative to total array intensity signal. Statistical significant altered genes (PR peptides vs. control) at P values <0.05 were analyzed by Student's t-test, 2-tailed distribution. The data were expressed as fold change PR peptides relative to controls (untreated cells kept in similar conditions).

Where [3] appears, read: chymotrypsin-like activity, read-out: I50.

“And” between values parts separate entries of the source, which are not always exact repeats. Equal values may be shown once. Read-outs that look alike come from different tables or passages of the source. Marks after values point to notes of the source that are not given here. Ends that are not written are not given here.

In assay [1] (I50, chymotrypsin-like activity), AAAPRPPYLPR [AAA, reference compound] showed an IC50 above 100000 nM.
AARPRPPYLPR [AAR]: the IC50 in assay [1] (setting [3]) was found to be 14500 nM.
Still for that read-out and setting: the result for ARAPRPPYLPR [ARA] reads 11300 nM.
As to ARRPRPPELPR [Peptide A1E8], in assay [1] (setting [3]), the IC50 was 49400 nM. In addition, in assay [2], the “overall inhibitory effect on NF-κB pathway-related gene expression (in words)” value (“overall inhibitory effect” for short) is “reduced activity compared with PR11 or Trp12”, the AKT1 gene expression is 0.8 fold change, the ATF2 gene expression is reported as −1.5* fold change and the CREB1 gene expression is −2.2* fold change. Moreover, in assay [2], the ELK3 gene expression result is listed as “^−1.9^# fold change”, the JNK1 gene expression is given as −1.5 fold change, the MEK4 gene expression is reported as −1.2 fold change and the MEKK1 gene expression is given as −0.8 fold change. In assay [2], the MEKK2 gene expression is listed as −1.2 fold change, the NF-κB1 gene expression is −1.6 fold change, the NF-κB2 gene expression is listed as −3.5* fold change and the “P38 MAPK gene expression” value was −1.6 fold change. Further, in assay [2], the RANK gene expression amounted to 1.3 fold change, the RIP gene expression was −10.4^# fold change, the TAK1 gene expression is listed as −1.8 fold change and the TBK1 gene expression is reported as −2.0^# fold change. Moreover, the TRAF6 gene expression in assay [2] is −1.6 fold change.
On to ARRPRPPYLPR [Peptide A1], for which the IC50 in assay [1] (setting [3]) stood at 2810 nM. In addition, in assay [2], the “overall inhibitory effect” value was “dramatically reduced PR11 activity”, the AKT1 gene expression turned out to be 1.3 fold change, the ATF2 gene expression is listed as −1.4* fold change and the CREB1 gene expression is listed as −1.4 fold change. Further, in assay [2], the ELK3 gene expression is on record as 0.9 fold change, the JNK1 gene expression is −1.1 fold change, the MEK4 gene expression is −0.9 fold change and the MEKK1 gene expression is −1.0 fold change. Besides, in assay [2], the MEKK2 gene expression is −1.2 fold change, the NF-κB1 gene expression is recorded as −1.1 fold change, the NF-κB2 gene expression was −1.1 fold change and the “P38 MAPK gene expression” value is given as −1.1 fold change. For the same substance, in assay [2], the RANK gene expression was found to be 1.2 fold change, the RIP gene expression is listed as −0.9 fold change, the TAK1 gene expression is −1.4* fold change and the TBK1 gene expression was −1.4* fold change. The substance further gave a TRAF6 gene expression in assay [2] of −1.1 fold change.
As to “H-RRRPRPPYLPRPRPPPFFPPRLPPRIPPGFPPRFPPRFP-OH [PR39, reference compound]”, in assay [1] (setting [3]), the IC50 was 4 nM.
As for KKKPRPPYLPR [KKK], the IC50 in assay [1] (setting [3]) was 2710 nM. Further, in assay [2], the “overall inhibitory effect” value is on record as “lowest inhibitory effect in this series”, the AKT1 gene expression stood at 1.7 fold change, the ATF2 gene expression is on record as −1.3 fold change and the CREB1 gene expression was −1.3 fold change. In assay [2], the ELK3 gene expression is reported as 1.4^# fold change, the JNK1 gene expression is reported as −2.5 fold change, the MEK4 gene expression is −2.8* fold change and the MEKK1 gene expression is −2.0 fold change. In addition, in assay [2], the MEKK2 gene expression was −1.5 fold change, the NF-κB1 gene expression is recorded as −2.4 fold change, the NF-κB2 gene expression was −1.4 fold change and the “P38 MAPK gene expression” value is listed as −1.3 fold change. In assay [2], the RANK gene expression amounted to 1.2 fold change, the RIP gene expression is recorded as −2.6 fold change, the TAK1 gene expression is reported as −2.9* fold change and the TBK1 gene expression is on record as −1.8^# fold change. Also, in assay [2], the TRAF6 gene expression is −1.3 fold change and the “number of significantly reduced genes” value is 3 genes.
On to KRRPRPPELPR [Peptide K1E8], for which, in assay [1] (setting [3]), the IC50 was determined as 6340 nM. In assay [2], the “overall inhibitory effect” value is reported as “higher than that of Glu8 or Ala1Glu8”, the AKT1 gene expression is listed as 0.6 fold change, the ATF2 gene expression is on record as −2.6^# fold change and the CREB1 gene expression is on record as −5.0^# fold change. In assay [2], the ELK3 gene expression entry is “^−1.9^# fold change”, the JNK1 gene expression is reported as −2.2 fold change, the MEK4 gene expression is −1.9* fold change and the MEKK1 gene expression is on record as −1.4 fold change. For the same substance, in assay [2], the MEKK2 gene expression was −3.0^# fold change, the NF-κB1 gene expression is listed as −1.9 fold change, the NF-κB2 gene expression is recorded as −2.3* fold change and the “P38 MAPK gene expression” value was −2.6^# fold change. Further, in assay [2], the RANK gene expression was 0.7 fold change, the RIP gene expression is given as −3.3* fold change, the TAK1 gene expression is −2.4^# fold change and the TBK1 gene expression is given as −3.6^# fold change. The TRAF6 gene expression in assay [2] is −5.5* fold change.
Consider RAAPRPPYLPR [RAA], for which, in assay [1] (setting [3]), the IC50 was 20100 nM.
For RARPRPPYLPR [Peptide A2], the IC50 in assay [1] (setting [3]) was 2770 nM. Further, in assay [2], the “overall inhibitory effect” value is “dramatically reduced PR11 activity”, the AKT1 gene expression worked out at 1.4 fold change, the ATF2 gene expression was −1.2 fold change and the CREB1 gene expression was −1.4 fold change. Moreover, in assay [2], the ELK3 gene expression stood at 1.0 fold change, the JNK1 gene expression is −1.5 fold change, the MEK4 gene expression is reported as −1.9 fold change and the MEKK1 gene expression was −1.8 fold change. In assay [2], the MEKK2 gene expression is reported as −0.9 fold change, the NF-κB1 gene expression was −1.2 fold change, the NF-κB2 gene expression is recorded as −0.8 fold change and the “P38 MAPK gene expression” value is on record as −0.9 fold change. Also, in assay [2], the RANK gene expression is 1.4 fold change, the RIP gene expression is listed as −1.1 fold change, the TAK1 gene expression was −0.8 fold change and the TBK1 gene expression is recorded as −1.3 fold change. In assay [2], this substance displayed a TRAF6 gene expression of −1.1 fold change.
For RKRPRPPYLPR [Peptide K2], the IC50 in assay [1] (setting [3]) was 543 nM. In assay [2], the “overall inhibitory effect” value is on record as “not significantly different than PR11”, the AKT1 gene expression was determined as 1.6 fold change, the ATF2 gene expression was −2.0^# fold change and the CREB1 gene expression is recorded as −2.6 fold change. In assay [2], the ELK3 gene expression is 1.5* fold change, the JNK1 gene expression was −3.1 fold change, the MEK4 gene expression was −9.3^# fold change and the MEKK1 gene expression is listed as −5.3* fold change. In addition, in assay [2], the MEKK2 gene expression is reported as −1.7 fold change, the NF-κB1 gene expression was −2.1 fold change, the NF-κB2 gene expression is recorded as −1.5 fold change and the “P38 MAPK gene expression” value is reported as −1.4 fold change. For the same substance, in assay [2], the RANK gene expression is on record as 1.1 fold change, the RIP gene expression is −2.8* fold change, the TAK1 gene expression is reported as −2.1* fold change and the TBK1 gene expression is reported as −4.6^# fold change. For the same substance, in assay [2], the TRAF6 gene expression is recorded as −2.5 fold change and the “number of significantly reduced genes” value turned out to be 6 genes.
RRRARPPYLPR [Peptide A4]: the IC50 in assay [1] (setting [3]) was 5000 nM and 4990 nM.
On the same count and under the same terms, the result for RRRPAPPYLPR [Peptide A5] reads 2650 nM; that for RRRPRAPYLPR [Peptide A6], 1220 nM.
On to RRRPRPAYLPR [Peptide A7], for which the IC50 in assay [1] (setting [3]) came out at 851 nM.
For the substance RRRPRPPYGPR [Peptide G9], the “20S proteasome inhibiting activity (in words)” value in assay [1] (chymotrypsin-like activity) is “fully active”. Moreover, in assay [1] (setting [3]), the IC50 was determined as 137 nM.
With RRRPRPPYLAR [Peptide A10], the IC50 in assay [1] (setting [3]) turned out to be 782 nM.
Consider RRRPRPPYLPA [Peptide A11], for which the IC50 in assay [1] (setting [3]) worked out at 685 nM.
